From patent US20170190671A1, “BIS(ARYL)CATECHOL DERIVATIVES AS HERBICIDES” (E I DU PONT DE NEMOURS AND COMPANY, priority 2014, published 2017)

Experiments:
Test in all cases: Test E preemergence
Format in all cases: in vivo
Conditions in all cases: scale 0 to 100
[1] = test system: ragweed (common ragweed, Ambrosia elatior)
Excerpt: (§1) Seeds of plant species selected from corn (Zea mays), soybean (Glycine max), velvetleaf (Abutilon theophrasti), cocklebur (common cocklebur, Xanthium strumarium), lambsquarters (Chenopodium album), wild poinsettia (Euphorbia heterophylla), palmer pigweed (Amaranthus palmeri), waterhemp (common waterhemp, Amaranthus rudis), surinam grass (Brachiaria decumbens), large (Lg) crabgrass (Digitaria sanguinalis), Brazilian crabgrass (Digitaria horizontalis), fall panicum (Panicum dichotomiflorum), giant foxtail (Setaria faberii), green foxtail (Setaria viridis), goosegrass (Eleusine indica), johnsongrass (Sorghum halepense), ragweed (common ragweed, Ambrosia elatior), barnyardgrass (Echinochloa crus-galli), sandbur (southern sandbur, Cenchrus echinatus), arrowleaf sida (Sida rhombifolia), Italian ryegrass (Lolium multiflorum), dayflower (Virginia (VA) dayflower, Commelina virginica), field bindweed (Convolvulus arvensis), morningglory (Ipomoea coccinea), nightshade (eastern black nightshade, Solanum ptycanthum), kochia (Kochia scoparia), yellow nutsedge (Cyperus esculentus), horseweed (Conyza canadensis), and hairy beggarticks (Bidens pilosa), were planted into a silt loam soil and treated preemergence with test chemicals formulated in a non-phytotoxic solvent mixture which included a surfactant.
(§2) At the same time, plants from these crop and weed species and also waterhemp_RES1, (ALS & Triazine resistant common waterhemp, Amaranthus rudis), and waterhemp_RES2, (ALS & HPPD resistant common waterhemp, Amaranthus rudis) were planted in pots containing Redi-Earth® planting medium (Scotts Company, 14111 Scottslawn Road, Marysville, Ohio 43041) comprising spaghnum peat moss, vermiculite, wetting agent and starter nutrients were treated with postemergence applications of test chemicals formulated in the same manner. Plants ranged in height from 2 to 18 cm for postemergence treatments (1- to 4-leaf stage). Treated plants and controls were maintained in a greenhouse for 14 to 21 days, after which time all species were compared to controls and visually evaluated. Plant response ratings, summarized in Table E, are based on a scale of 0 to 100 where 0 is no effect and 100 is complete control. A dash (-) response means no test result.

[2] = test system: goosegrass (Eleusine indica)
Excerpt: as §1, §2

[3] = test system: giant foxtail (Setaria faberii)
Excerpt: as §1, §2

[4] = test system: Brazilian crabgrass (Digitaria horizontalis)
Excerpt: as §1, §2

[5] = test system: barnyardgrass (Echinochloa crus-galli)
Excerpt: as §1, §2

[6] = test system: green foxtail (Setaria viridis)
Excerpt: as §1, §2

[7] = test system: soybean (Glycine max)
Excerpt: as §1, §2

[8] = test system: kochia (Kochia scoparia)
Excerpt: as §1, §2

[9] = test system: fall panicum (Panicum dichotomiflorum)
Excerpt: as §1, §2

[10] = test system: waterhemp (common waterhemp, Amaranthus rudis)
Excerpt: as §1, §2

[11] = test system: sandbur (southern sandbur, Cenchrus echinatus)
Excerpt: as §1, §2

[12] = test system: arrowleaf sida (Sida rhombifolia)
Excerpt: as §1, §2

[13] = test system: Italian ryegrass (Lolium multiflorum)
Excerpt: as §1, §2

[14] = test system: palmer pigweed (Amaranthus palmeri)
Excerpt: as §1, §2

[15] = test system: nightshade (eastern black nightshade, Solanum ptycanthum)
Excerpt: as §1, §2

[16] = test system: Surinam grass (Brachiaria decumbens)
Excerpt: as §1, §2

[17] = test system: velvetleaf (Abutilon theophrasti)
Excerpt: as §1, §2

[18] = test system: hairy beggarticks (Bidens pilosa)
Excerpt: as §1, §2

[19] = test system: yellow nutsedge (Cyperus esculentus)
Excerpt: as §1, §2

[20] = test system: large (Lg) crabgrass (Digitaria sanguinalis)
Excerpt: as §1, §2

[21] = test system: lambsquarters (Chenopodium album)
Excerpt: as §1, §2

N#Cc1cccc(Oc2ncc(Cl)cn2)c1Oc1ncc(C(F)(F)F)cn1 [Compound 38, 3-[(5-chloro-2-pyrimidinyl)oxy]-2-[[5-(trifluoromethyl)-2-pyrimidinyl]oxy]-benzonitrile]
Plant response rating, Ragweed ([1]; 16 g ai/ha): 40 | Plant response rating, Ragweed ([1]; 31 g ai/ha): 40 | Plant response rating, Ragweed ([1]; 62 g ai/ha): 60 | Plant response rating, Ragweed ([1]; 125 g ai/ha): 70 | Plant response rating, Goosegrass ([2]; 16 g ai/ha): 30 | Plant response rating, Goosegrass ([2]; 31 g ai/ha): 50 | Plant response rating, Goosegrass ([2]; 62 g ai/ha): 90 | Plant response rating, Goosegrass ([2]; 125 g ai/ha): 100 | Plant response rating, Foxtail, Giant ([3]; 16 g ai/ha): 5 | Plant response rating, Foxtail, Giant ([3]; 31 g ai/ha): 70 | Plant response rating, Foxtail, Giant ([3]; 62 g ai/ha): 100 | Plant response rating, Foxtail, Giant ([3]; 125 g ai/ha): 100 | Plant response rating, Crabgrass, Brazil ([4]; 16 g ai/ha): 80 | Plant response rating, Crabgrass, Brazil ([4]; 31 g ai/ha): 98 | Plant response rating, Crabgrass, Brazil ([4]; 62 g ai/ha): 100 | Plant response rating, Crabgrass, Brazil ([4]; 125 g ai/ha): 100 | Plant response rating, Barnyardgrass ([5]; 16 g ai/ha): 0 | Plant response rating, Barnyardgrass ([5]; 31 g ai/ha): 10 | Plant response rating, Barnyardgrass ([5]; 62 g ai/ha): 70 | Plant response rating, Barnyardgrass ([5]; 125 g ai/ha): 90 | Plant response rating, Foxtail, Green ([6]; 16 g ai/ha): 5 | Plant response rating, Foxtail, Green ([6]; 31 g ai/ha): 30 | Plant response rating, Foxtail, Green ([6]; 62 g ai/ha): 100 | Plant response rating, Foxtail, Green ([6]; 125 g ai/ha): 100 | Plant response rating, Soybean ([7]; 16 g ai/ha): 15 | Plant response rating, Soybean ([7]; 31 g ai/ha): 15 | Plant response rating, Soybean ([7]; 62 g ai/ha): 95 | Plant response rating, Soybean ([7]; 125 g ai/ha): 80 | Plant response rating, Kochia ([8]; 16 g ai/ha): 80 | Plant response rating, Kochia ([8]; 31 g ai/ha): 98 | Plant response rating, Kochia ([8]; 62 g ai/ha): 100 | Plant response rating, Kochia ([8]; 125 g ai/ha): 100 | Plant response rating, Panicum, Fall ([9]; 16 g ai/ha): 0 | Plant response rating, Panicum, Fall ([9]; 31 g ai/ha): 98 | Plant response rating, Panicum, Fall ([9]; 62 g ai/ha): 100 | Plant response rating, Panicum, Fall ([9]; 125 g ai/ha): 100 | Plant response rating, Waterhemp ([10]; 16 g ai/ha): 50 | Plant response rating, Waterhemp ([10]; 31 g ai/ha): 98 | Plant response rating, Waterhemp ([10]; 62 g ai/ha): 98 | Plant response rating, Waterhemp ([10]; 125 g ai/ha): 100 | Plant response rating, Sandbur ([11]; 16 g ai/ha): 0 | Plant response rating, Sandbur ([11]; 31 g ai/ha): 0 | Plant response rating, Sandbur ([11]; 62 g ai/ha): 35 | Plant response rating, Sandbur ([11]; 125 g ai/ha): 80 | Plant response rating, Arrowleaf Sida ([12]; 16 g ai/ha): 60 | Plant response rating, Arrowleaf Sida ([12]; 31 g ai/ha): 50 | Plant response rating, Arrowleaf Sida ([12]; 62 g ai/ha): 80 | Plant response rating, Arrowleaf Sida ([12]; 125 g ai/ha): 100 | Plant response rating, Ryegrass, Italian ([13]; 16 g ai/ha): 0 | Plant response rating, Ryegrass, Italian ([13]; 31 g ai/ha): 25 | Plant response rating, Ryegrass, Italian ([13]; 62 g ai/ha): 65 | Plant response rating, Ryegrass, Italian ([13]; 125 g ai/ha): 80 | Plant response rating, Pigweed, Palmer ([14]; 16 g ai/ha): 60 | Plant response rating, Pigweed, Palmer ([14]; 31 g ai/ha): 100 | Plant response rating, Pigweed, Palmer ([14]; 62 g ai/ha): 98 | Plant response rating, Pigweed, Palmer ([14]; 125 g ai/ha): 100 | Plant response rating, Nightshade ([15]; 16 g ai/ha): 5 | Plant response rating, Nightshade ([15]; 31 g ai/ha): 95 | Plant response rating, Nightshade ([15]; 62 g ai/ha): 98 | Plant response rating, Nightshade ([15]; 125 g ai/ha): 100 | Plant response rating, Surinam Grass ([16]; 16 g ai/ha): 0 | Plant response rating, Surinam Grass ([16]; 31 g ai/ha): 0 | Plant response rating, Surinam Grass ([16]; 62 g ai/ha): 15 | Plant response rating, Surinam Grass ([16]; 125 g ai/ha): 40 | Plant response rating, Velvetleaf ([17]; 16 g ai/ha): 20 | Plant response rating, Velvetleaf ([17]; 31 g ai/ha): 65 | Plant response rating, Velvetleaf ([17]; 62 g ai/ha): 85 | Plant response rating, Velvetleaf ([17]; 125 g ai/ha): 100 | Plant response rating, Beggarticks ([18]; 16 g ai/ha): 0 | Plant response rating, Beggarticks ([18]; 31 g ai/ha): 0 | Plant response rating, Beggarticks ([18]; 62 g ai/ha): 0 | Plant response rating, Beggarticks ([18]; 125 g ai/ha): 35 | Plant response rating, Nutsedge, Yellow ([19]; 16 g ai/ha): 0 | Plant response rating, Nutsedge, Yellow ([19]; 31 g ai/ha): 0 | Plant response rating, Nutsedge, Yellow ([19]; 62 g ai/ha): 20 | Plant response rating, Nutsedge, Yellow ([19]; 125 g ai/ha): 65 | Plant response rating, Crabgrass, Large ([20]; 16 g ai/ha): 50 | Plant response rating, Crabgrass, Large ([20]; 31 g ai/ha): 75 | Plant response rating, Crabgrass, Large ([20]; 62 g ai/ha): 100 | Plant response rating, Crabgrass, Large ([20]; 125 g ai/ha): 100 | Plant response rating, Lambsquarters ([21]; 16 g ai/ha): 98 | Plant response rating, Lambsquarters ([21]; 31 g ai/ha): 100 | Plant response rating, Lambsquarters ([21]; 62 g ai/ha): 100 | Plant response rating, Lambsquarters ([21]; 125 g ai/ha): 100
